Data published in patent US20160129003A1, “Pharmaceutical Combinations” (Novartis AG, priority 2013, published 2016).
Read-outs that look alike come from different tables or passages of the source.

Key:
[1] = tested on: primary human lung cancer LU1656 xenograft; test: In-vivo antitumor activity, subcutaneous LU1656 xenograft, first and second phase (Example 3); conditions: for T-C (days) at 500 mm^3 / T/C (%) / Tumor Size (mm^3) at Day 50 Post Tumor Implantation / Tumor Size (mm^3) at Day 61 Post Tumor Implantation: p.o.; for Tumor Size (mm^3) at Day 50 Post Tumor Implantation / Tumor Size (mm^3) at Day 61 Post Tumor Implantation: Mean ± SEM
Protocol: The in-vivo antitumor activity […] of the phosphatidylinositol-3-kinase inhibitor compound COMPOUND B in combination with either the anaplastic lymphoma kinase inhibitor COMPOUND D or crizotinib and (b) of the phosphatidylinositol-3-kinase inhibitor compound COMPOUND C in combination with either the anaplastic lymphoma kinase inhibitor COMPOUND D or crizotinib is evaluated in the treatment of subcutaneous primary human lung cancer LU1656 xenograft models in nu/nu mice.
(§1) Experiments are performed with female Mus Musculus nu/nu mice (Vital River Laboratories, China) approximately 7-8 weeks of age and 19-24 g body weight at treatment start. All animals are housed in laminar flow rooms at constant temperature (approximately 20-26° C.) and humidity (approximately 40-70%) with 4 or 5 animals in each cage. All animals have free access to irradiation sterilized dry granule food and sterile drinking water.
Animals are divided into 9 groups.
COMPOUND B in form of its monohydrochloride salt (Novartis) is obtained as a powder and stored at −20° C. 99.1 mg of COMPOUND B monohydrochoride (equivalent to 91 mg of free base) is formulated in 6.5 ml of 1% Tween 80 and 6.5 ml 1% methylcellulose (M-0512). COMPOUND B is first sonicated in the 1% Tween 80 and then mixed with the 1% methylcellulose and then stirred for 1 hour and sonicated for 5 minutes to formulate a solution having a COMPOUND B concentration of 7 mg/ml. For this experiment, the COMPOUND B monohydrochloride salt is referred to as “COMPOUND B”.
COMPOUND C is obtained as a powder and stored at 4° C. A vehicle is formulated by dissolving 2 g of CMC sodium salt powder low density in 198 ml of sterile water, mixing using a magnetic beater and heating (about 50° C.), adding 1 ml Tween 80, adjusting the pH to 7.6 using NaOh/HCl, and completing the volume to 200 ml. 84 mg of COMPOUND C is suspended in 3.5 ml of this vehicle and stirred/vortexed until homogenous; another 3.5 ml of this vehicle is added and homogenized; and another 7 ml of this vehicle is added and homogenized. To reduce particle size, this solution is sonicated for 1 hour using a sonication probe while cooling in an ice bath. The solution is having a COMPOUND C concentration of 6 mg/ml.
(§2) COMPOUND D in the form of its salt (Novartis) is obtained as a powder and stored at −20° C. 388 mg of COMPOUND D salt (equivalents to 330 mg of free base) is suspended in 33 ml of 0.5% methylcellulose (M-0512) and 0.5% Tween, is sonicated and then is vortexed to formulate a solution having a COMPOUND D concentration of 10 mg/ml. Additionally, 11 ml of this 10 mg/ml concentration solution is diluted with 11 ml 0.5% methylcellulose and 0.5% Tween 80 and vortexted to form a second solution having a COMPOUND D concentration of 5 mg/ml. For this experiment, the COMPOUND D salt is referred to as “COMPOUND D”.
COMPOUND C is obtained as a powder and stored at 4° C. A vehicle is formulated by dissolving 2 g of CMC sodium salt powder low density in 198 ml of sterile water, mixing using a magnetic beater and heating (about 50° C.), adding 1 ml Tween 80, adjusting the pH to 7.6 using NaOh/HCl, and completing the volume to 200 ml.

[2] = tested on: primary human lung cancer LUF1656 xenograft; type: in vivo; conditions: PO, QD × 21 Days; for T/C (%): Day 21; for Tumor Size (mm^3) at Day 21 of Treatment: Mean ± SEM
Protocol: The in-vivo antitumor activity of the phosphatidylinositol-3-kinase inhibitor compound COMPOUND B in combination with either the anaplastic lymphoma kinase inhibitor COMPOUND D or crizotinib is evaluated in the treatment of subcutaneous primary human lung cancer LUF1656 xenograft models in nu/nu mice.
as §1, with “water. Animals are divided into groups of 10 animals per group.” for “water.”
COMPOUND B in form of its monohydrochloride salt (Novartis) is obtained as a powder and stored at −20° C. 323.3 mg of COMPOUND B monohydrochoride (equivalent to 294 mg of free base) is formulated in 21 ml of 1% Tween 80 and 21 ml 1% methylcellulose (M-0512). COMPOUND B is first sonicated in the 1% Tween 80 and then mixed with the 1% methylcellulose and then stirred for 1 hour and sonicated for 5 minutes to formulate a solution having a COMPOUND B concentration of 7 mg/ml. For this experiment, the COMPOUND B monohydrochloride salt is referred to as “COMPOUND B”.
as §2
Crizotinib is obtained as a powder and stored at −20° C. 220 mg of crizotinib is suspended in 22 ml 0.5% methylcellulose (MC) and sonicated to form a solution having a crizotinib concentration of 10 mg/ml. This solution can be stored at 4° C. for 1 week and protected from light.
Tumor fragments from stock mice inoculated with LUF1656 primary human lung cancer cells (Crown Bio, China) are harvested and used for inoculation into the nu/nu mice. Each mouse is inoculated subcutaneously at the right flank with one tumor fragment (2-3 mm in diameter) for tumor development. The treatments are started when mean tumor size reach approximately 135 mm^3. Animals are routinely monitored and body weight measured twice weekly. Death and observed clinical signs are recorded on the basis of the number of animals within each subset. Animals observed to be in a continuing deteriorating condition or for which the tumor size of individual animal exceeds 1/10 of the body weight are euthanized prior to death or before comatose.
Tumor size is measured twice weekly in two dimensions using a caliper and the volume is expressed in mm^3 using the formula: V=0.5 a×b^2, wherein a and b are the long and short diameters of the tumor respectively. The tumor size is then used for calculation of both T-C and T/C values. T-C is calculated with T as the time (days) required for the mean tumor size of the treatment group to reach a predetermined size (e.g., 400 mm^3) and C is the time (in days) for the mean tumor size of the control group to reach the same size. T/C value (in percent is an indication of the anti-tumor effectiveness; T and C are the mean volume of the treated and control groups, respectively, on a given day.
Summary statistics are provided for the tumor volume of each group at each time point.

[3] = first phase, Group 4: COMPOUND C 30 mg/kg, QD × 35
[4] = first phase, Group 3: COMPOUND D 50 mg/kg, QD × 40
[5] = second phase, Group 8: COMPOUND D 25 mg/kg, QD × 40
[6] = second phase, Group 9: Crizotinib 50 mg/kg, QD × 40

In the case of `Cc1nc(NC(=O)N2CCC[C@H]2C(N)=O)sc1-c1ccnc(C(C)(C)C(F)(F)F)c1` [COMPOUND C, (S)-Pyrrolidine-1,2-dicarboxylic acid 2-amide 1-({4-methyl-5-[2-(2,2,2-trifluoro-1,1-dimethyl-ethyl)-pyridin-4-yl]-thiazol-2-yl}-amide)], the “antitumor activity against the LU1656 xenograft model (summary)” value (“antitumor activity … (summary)” below) ([1]; COMPOUND C at 30 mg/kg as a single agent) was “significant antitumor activity”, the “T-C (days) at 500 mm^3” value [1, 3] was 11 days and the “T/C (%)” value ([1]; first phase, Group 4: COMPOUND C 30 mg/kg, QD × 35, Day 50) was 36.0%. The “Tumor Size (mm^3) at Day 50 Post Tumor Implantation” value [1, 3] was 752.5 mm^3.

`Nc1cc(C(F)(F)F)c(-c2cc(N3CCOCC3)nc(N3CCOCC3)n2)cn1` [COMPOUND B, 5-(2,6-di-morpholin-4-yl-pyrimidin-4-yl)-4-trifluoromethyl-pyridin-2-ylamine] was tested, and the “T/C (%)” value ([2]; Group 3: COMPOUND B 35 mg/kg) was 30.1% and the “Tumor Size (mm^3) at Day 21 of Treatment” value ([2]; Group 3: COMPOUND B 35 mg/kg) was 365.4 mm^3.

With `Cc1cc(Nc2ncc(Cl)c(Nc3ccccc3S(=O)(=O)C(C)C)n2)c(OC(C)C)cc1C1CCNCC1` [COMPOUND D, 5-Chloro-N2-(2-isopropoxy-5-methyl-4-piperidin-4-yl-phenyl)-N4-[2-(propane-2-sulfonyl)-phenyl]-pyrimidine-2,4-diamine] the “antitumor activity … (summary)” value ([1]; COMPOUND D at 25 mg/kg as a single agent) was “significant antitumor activity”, the “antitumor activity … (summary)” value ([1]; COMPOUND D at 50 mg/kg as a single agent) was “significant antitumor activity” and the “T-C (days) at 500 mm^3” value [1, 4] was 40 days. For the same molecule, the “T/C (%)” value ([1]; first phase, Group 3: COMPOUND D 50 mg/kg, QD × 40, Day 50) was 10.4%, the “Tumor Size (mm^3) at Day 50 Post Tumor Implantation” value [1, 4] was 218.2 mm^3 and the “T-C (days) at 500 mm^3” value [1, 5] was 34 days. The “T/C (%)” value ([1]; second phase, Group 8: COMPOUND D 25 mg/kg, QD × 40, Day 61) was 14.6%, the “Tumor Size (mm^3) at Day 61 Post Tumor Implantation” value [1, 5] was 307.4 mm^3 and the “antitumor activity compared to Crizotinib (50 mg/kg) monotherapy” value ([1]; second phase, COMPOUND D 25 mg/kg monotherapy, Day 64 to Day 82, p<0.05 or p<0.01 at different days) was “significantly improved”. The “T/C (%)” value ([2]; Group 7: COMPOUND D 25 mg/kg) was 16.1%, the “Tumor Size (mm^3) at Day 21 of Treatment” value ([2]; Group 7: COMPOUND D 25 mg/kg) was 194.9 mm^3 and the “T/C (%)” value ([2]; Group 8: COMPOUND D 50 mg/kg) was 17.6%. For the same molecule, the “Tumor Size (mm^3) at Day 21 of Treatment” value ([2]; Group 8: COMPOUND D 50 mg/kg) was 213.6 mm^3.

`C[C@@H](Oc1cc(-c2cnn(C3CCNCC3)c2)cnc1N)c1c(Cl)ccc(F)c1Cl` [Crizotinib, reference compound] was tested, and the “T-C (days) at 500 mm^3” value [1, 6] was 14 days, the “T/C (%)” value ([1]; second phase, Group 9: Crizotinib 50 mg/kg, QD × 40, Day 61) was 24.7% and the “Tumor Size (mm^3) at Day 61 Post Tumor Implantation” value [1, 6] was 520.4 mm^3. The “antitumor activity compared with vehicle control” value ([1]; second phase, Crizotinib 50 mg/kg, PO, QD×40, Day 47 to Day 61 after tumor implantation, p<0.01 or p<0.001 at different days) was “significant antitumor activity”, the “T-C (days) at 400 mm^3” value ([2]; Group 6: Crizotinib 50 mg/kg) was 7 days and the “T/C (%)” value ([2]; Group 6: Crizotinib 50 mg/kg) was 37.1%. For the same molecule, the “Tumor Size (mm^3) at Day 21 of Treatment” value ([2]; Group 6: Crizotinib 50 mg/kg, from 9 animals' data (one outlier removed)) was 450.8 ± mm^3.
